Experimental data as given in ChEMBL document CHEMBL4390652, “Design, biological evaluation and X-ray crystallography of nanomolar multifunctional ligands targeting simultaneously acetylcholinesterase and glycogen synthase kinase-3” (Eur J Med Chem, 2019).

What was measured:
[1] = tested on: Huh-7; test: Cytotoxicity against human HuH7 cells assessed as growth inhibition incubated for 48 hrs by Hoechst 33342 staining based assay; type: cell-based; conditions: Huh-7, 48 h
[2] = Cytotoxicity against human SH-SY5Y cells assessed as reduction in cell viability at 100 uM incubated for 24 hrs by MTT assay relative to untreated cells; type: cell-based; conditions: read-out: INH
[3] = tested on: Serine/threonine-protein kinase B-raf (Homo sapiens), P15056 [V600E]; test: Binding affinity to human partial length BRAF V600E mutant (S429 to E741 residues) expressed in mammalian expression system assessed as residual binding level at 10 uM by Kinomescan method relative to control
[4] = molecular target: Cyclin-dependent kinase 4/cyclin D1 (Homo sapiens) (UniProt P11802+P24385); test: Binding affinity to wild-type human full length CDK4/cyclinD1 (M1 to E303 residues) expressed in mammalian expression system assessed as residual binding level at 10 uM by Kinomescan method relative to control
[5] = molecular target: Casein kinase I isoform gamma-1 (Homo sapiens) (UniProt Q9HCP0); test: Binding affinity to wild-type human partial length CSNK1G1 (T15 to S353 residues) expressed in bacterial expression system assessed as residual binding level at 10 uM by Kinomescan method relative to control
[6] = molecular target: Serine/threonine-protein kinase DCLK1 (Homo sapiens) (UniProt O15075); test: Binding affinity to wild-type human partial length DCAMKL1 (L270 to A662 residues) expressed in mammalian expression system assessed as residual binding level at 10 uM by Kinomescan method relative to control
[7] = molecular target: Serine/threonine-protein kinase 17A (Homo sapiens) (UniProt Q9UEE5); test: Binding affinity to wild-type human partial length DRAK1 (R32 to E363 residues) expressed in bacterial expression system assessed as residual binding level at 10 uM by Kinomescan method relative to control
[8] = molecular target: Ephrin type-A receptor 4 (Homo sapiens) (UniProt P54764); test: Binding affinity to wild-type human partial length EPHA4 (T601 to R897 residues) expressed in bacterial expression system assessed as residual binding level at 10 uM by Kinomescan method relative to control
[9] = molecular target: Ephrin type-B receptor 4 (Homo sapiens) (UniProt P54760); test: Binding affinity to wild-type human partial length EPHB4 (H585 to G892 residues) expressed in bacterial expression system assessed as residual binding level at 10 uM by Kinomescan method relative to control
[10] = molecular target: Mitogen-activated protein kinase 15 (Homo sapiens) (UniProt Q8TD08); test: Binding affinity to wild-type human partial length ERK8 (M1 to P437 residues) expressed in bacterial expression system assessed as residual binding level at 10 uM by Kinomescan method relative to control
[11] = molecular target: Focal adhesion kinase 1 (Homo sapiens) (UniProt Q05397); test: Binding affinity to wild-type human partial length FAK (D402 to R696 residues) expressed in bacterial expression system assessed as residual binding level at 10 uM by Kinomescan method relative to control
[12] = molecular target: Cyclin-G-associated kinase (Homo sapiens) (UniProt O14976); test: Binding affinity to wild-type human partial length GAK (G13 to Y338 residues) expressed in bacterial expression system assessed as residual binding level at 10 uM by Kinomescan method relative to control
[13] = molecular target: Rhodopsin kinase GRK1 (Homo sapiens) (UniProt Q15835); test: Binding affinity to wild-type human full length GRK1 (M1 to S563 residues) expressed in mammalian expression system assessed as residual binding level at 10 uM by Kinomescan method relative to control
[14] = tested on: Mast/stem cell growth factor receptor Kit (Homo sapiens), P10721 [D816V]; test: Binding affinity to human partial length KIT D816V mutant (I571 to D952 residues) expressed in bacterial expression system assessed as residual binding level at 10 uM by Kinomescan method relative to control
[15] = molecular target: Mitogen-activated protein kinase kinase kinase kinase 4 (Homo sapiens) (UniProt O95819); test: Binding affinity to wild-type human partial length MAP4K4 (M1 to R310 residues) expressed in bacterial expression system assessed as residual binding level at 10 uM by Kinomescan method relative to control
[16] = molecular target: MAP kinase-activated protein kinase 5 (Homo sapiens) (UniProt Q8IW41); test: Binding affinity to wild-type human partial length MAPKAPK5 (M1 to D322 residues) expressed in mammalian expression system assessed as residual binding level at 10 uM by Kinomescan method relative to control
[17] = molecular target: Mitogen-activated protein kinase kinase kinase 10 (Homo sapiens) (UniProt Q02779); test: Binding affinity to wild-type human partial length MLK2 (V52 to W380 residues) expressed in bacterial expression system assessed as residual binding level at 10 uM by Kinomescan method relative to control
[18] = molecular target: Serine/threonine-protein kinase Nek3 (Homo sapiens) (UniProt P51956); test: Binding affinity to wild-type human full length NEK3 (M1 to R506 residues) expressed in mammalian expression system assessed as residual binding level at 10 uM by Kinomescan method relative to control
[19] = molecular target: Serine/threonine-protein kinase Nek7 (Homo sapiens) (UniProt Q8TDX7); test: Binding affinity to wild-type human full length NEK7 (M1 to S302 residues) expressed in bacterial expression system assessed as residual binding level at 10 uM by Kinomescan method relative to control
[20] = molecular target: Serine/threonine-protein kinase NLK (Homo sapiens) (UniProt Q9UBE8); test: Binding affinity to wild-type human full length NLK (M13 to E527 residues) expressed in bacterial expression system assessed as residual binding level at 10 uM by Kinomescan method relative to control
[21] = molecular target: Serine/threonine-protein kinase PAK 3 (Homo sapiens) (UniProt O75914); test: Binding affinity to wild-type human full length PAK3 (M1 to R544 residues) expressed in bacterial expression system assessed as residual binding level at 10 uM by Kinomescan method relative to control
[22] = molecular target: Rho-associated protein kinase 1 (Homo sapiens) (UniProt Q13464); test: Binding affinity to wild-type human partial length ROCK1 (M1 to R415 residues) expressed in mammalian expression system assessed as residual binding level at 10 uM by Kinomescan method relative to control
[23] = molecular target: Rho-associated protein kinase 2 (Homo sapiens) (UniProt O75116); test: Binding affinity to wild-type human partial length ROCK2 (M1 to T431 residues) expressed in mammalian expression system assessed as residual binding level at 10 uM by Kinomescan method relative to control
[24] = molecular target: Ribosomal protein S6 kinase alpha-2 (Homo sapiens) (UniProt Q15349); test: Binding affinity to wild-type human partial length C-terminal RSK3 kinase domain 2 (V403 to K700 residues) expressed in bacterial expression system assessed as residual binding level at 10 uM by Kinomescan method relative to control
[25] = molecular target: Serine/threonine-protein kinase SIK2 (Homo sapiens) (UniProt Q9H0K1); test: Binding affinity to wild-type human full length SIK2 (M1 to N926 residues) expressed in bacterial expression system assessed as residual binding level at 10 uM by Kinomescan method relative to control

Chain of Serine/threonine-protein kinase PAK 3 (Homo sapiens) (O75914 whole entry, looked up, the tested form may be a part): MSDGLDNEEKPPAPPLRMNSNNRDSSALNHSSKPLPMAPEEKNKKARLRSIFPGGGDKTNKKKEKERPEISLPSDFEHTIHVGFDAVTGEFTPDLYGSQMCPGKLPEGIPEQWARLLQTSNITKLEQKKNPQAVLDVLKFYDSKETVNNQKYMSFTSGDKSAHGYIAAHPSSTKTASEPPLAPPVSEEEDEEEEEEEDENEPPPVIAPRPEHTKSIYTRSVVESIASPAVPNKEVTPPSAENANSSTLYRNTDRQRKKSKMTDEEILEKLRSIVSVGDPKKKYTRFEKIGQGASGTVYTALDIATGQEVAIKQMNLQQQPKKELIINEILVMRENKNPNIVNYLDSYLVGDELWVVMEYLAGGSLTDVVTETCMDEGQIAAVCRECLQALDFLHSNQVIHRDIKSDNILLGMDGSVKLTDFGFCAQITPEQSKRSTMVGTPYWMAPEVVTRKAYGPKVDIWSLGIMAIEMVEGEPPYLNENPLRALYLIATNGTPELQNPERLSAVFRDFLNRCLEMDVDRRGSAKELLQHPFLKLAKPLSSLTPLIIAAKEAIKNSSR
Chain of Ribosomal protein S6 kinase alpha-2 (Homo sapiens) (Q15349 whole entry, the tested form may be a part): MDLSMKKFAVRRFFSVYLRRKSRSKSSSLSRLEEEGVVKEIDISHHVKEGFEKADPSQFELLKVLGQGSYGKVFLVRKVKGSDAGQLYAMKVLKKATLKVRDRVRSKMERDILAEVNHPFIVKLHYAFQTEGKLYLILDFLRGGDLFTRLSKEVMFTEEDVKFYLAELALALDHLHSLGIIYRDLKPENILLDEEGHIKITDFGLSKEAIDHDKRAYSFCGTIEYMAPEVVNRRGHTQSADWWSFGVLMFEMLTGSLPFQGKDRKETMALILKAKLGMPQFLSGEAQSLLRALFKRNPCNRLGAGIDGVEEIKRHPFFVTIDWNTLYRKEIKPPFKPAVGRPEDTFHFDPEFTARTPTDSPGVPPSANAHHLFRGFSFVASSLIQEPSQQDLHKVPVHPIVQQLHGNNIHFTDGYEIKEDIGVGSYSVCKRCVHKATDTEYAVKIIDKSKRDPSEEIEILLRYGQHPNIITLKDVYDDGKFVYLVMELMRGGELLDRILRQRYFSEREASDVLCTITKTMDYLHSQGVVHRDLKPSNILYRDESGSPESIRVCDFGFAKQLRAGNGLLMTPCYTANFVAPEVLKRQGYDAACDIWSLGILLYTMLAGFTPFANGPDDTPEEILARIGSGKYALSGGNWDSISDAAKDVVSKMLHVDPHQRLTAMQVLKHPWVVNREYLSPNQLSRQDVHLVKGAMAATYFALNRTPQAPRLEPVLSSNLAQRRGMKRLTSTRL
Chain of Serine/threonine-protein kinase NLK (Homo sapiens) (Q9UBE8 whole entry, the tested form may be a part): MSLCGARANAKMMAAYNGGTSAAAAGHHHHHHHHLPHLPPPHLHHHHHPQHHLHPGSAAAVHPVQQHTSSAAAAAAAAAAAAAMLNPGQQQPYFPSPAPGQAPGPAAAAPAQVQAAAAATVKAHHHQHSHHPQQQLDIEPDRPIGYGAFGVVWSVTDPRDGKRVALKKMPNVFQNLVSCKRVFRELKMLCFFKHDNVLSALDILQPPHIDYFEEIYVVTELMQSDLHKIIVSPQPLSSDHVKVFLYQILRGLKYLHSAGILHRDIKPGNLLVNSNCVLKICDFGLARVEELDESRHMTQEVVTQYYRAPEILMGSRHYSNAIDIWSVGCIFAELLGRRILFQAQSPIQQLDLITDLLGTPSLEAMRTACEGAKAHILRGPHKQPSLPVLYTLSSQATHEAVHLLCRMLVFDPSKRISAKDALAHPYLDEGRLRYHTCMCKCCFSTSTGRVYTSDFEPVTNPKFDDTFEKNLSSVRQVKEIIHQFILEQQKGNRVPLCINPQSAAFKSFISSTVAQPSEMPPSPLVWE
Chain of Serine/threonine-protein kinase 17A (Homo sapiens) (Q9UEE5 whole entry, the tested form may be a part): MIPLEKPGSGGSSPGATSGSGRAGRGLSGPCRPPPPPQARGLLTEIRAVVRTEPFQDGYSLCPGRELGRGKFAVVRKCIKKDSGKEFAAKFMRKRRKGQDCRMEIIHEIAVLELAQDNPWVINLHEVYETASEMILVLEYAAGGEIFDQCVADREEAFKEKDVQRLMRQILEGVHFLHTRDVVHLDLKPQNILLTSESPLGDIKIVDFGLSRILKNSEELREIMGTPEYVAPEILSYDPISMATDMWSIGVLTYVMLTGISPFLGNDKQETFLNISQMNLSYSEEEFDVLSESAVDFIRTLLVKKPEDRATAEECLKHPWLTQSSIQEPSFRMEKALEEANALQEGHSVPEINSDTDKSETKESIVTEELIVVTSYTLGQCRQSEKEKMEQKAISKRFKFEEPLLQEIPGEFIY
Chain of Serine/threonine-protein kinase Nek3 (Homo sapiens) (P51956 whole entry, the tested form may be a part): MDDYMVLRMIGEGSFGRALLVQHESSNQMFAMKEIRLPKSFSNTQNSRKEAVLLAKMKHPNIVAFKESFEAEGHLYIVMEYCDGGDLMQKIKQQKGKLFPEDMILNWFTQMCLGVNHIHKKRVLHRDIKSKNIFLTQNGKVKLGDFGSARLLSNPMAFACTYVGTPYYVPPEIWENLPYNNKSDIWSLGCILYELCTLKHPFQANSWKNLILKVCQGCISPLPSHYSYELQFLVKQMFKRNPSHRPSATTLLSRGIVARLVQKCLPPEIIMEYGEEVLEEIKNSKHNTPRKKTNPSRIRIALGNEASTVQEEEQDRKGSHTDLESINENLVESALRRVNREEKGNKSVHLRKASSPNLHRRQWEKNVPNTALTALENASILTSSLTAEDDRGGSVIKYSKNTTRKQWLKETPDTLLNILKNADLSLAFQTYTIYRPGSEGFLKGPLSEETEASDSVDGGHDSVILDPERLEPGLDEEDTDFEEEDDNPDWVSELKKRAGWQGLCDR
Chain of Casein kinase I isoform gamma-1 (Homo sapiens) (Q9HCP0 whole entry, looked up, the tested form may be a part, canonical isoform): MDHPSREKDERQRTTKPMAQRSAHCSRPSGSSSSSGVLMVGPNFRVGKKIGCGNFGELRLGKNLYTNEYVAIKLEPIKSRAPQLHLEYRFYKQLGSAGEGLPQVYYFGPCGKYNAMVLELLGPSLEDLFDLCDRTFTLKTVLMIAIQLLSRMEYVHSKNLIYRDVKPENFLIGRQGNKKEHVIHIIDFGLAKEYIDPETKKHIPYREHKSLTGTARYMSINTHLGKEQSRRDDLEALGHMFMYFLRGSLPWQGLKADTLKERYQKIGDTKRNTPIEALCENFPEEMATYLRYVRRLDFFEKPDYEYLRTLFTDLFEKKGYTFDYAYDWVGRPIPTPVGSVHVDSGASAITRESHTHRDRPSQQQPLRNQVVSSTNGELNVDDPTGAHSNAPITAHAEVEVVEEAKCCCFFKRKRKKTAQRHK
Chain of Ephrin type-B receptor 4 (Homo sapiens) (P54760 whole entry, the tested form may be a part): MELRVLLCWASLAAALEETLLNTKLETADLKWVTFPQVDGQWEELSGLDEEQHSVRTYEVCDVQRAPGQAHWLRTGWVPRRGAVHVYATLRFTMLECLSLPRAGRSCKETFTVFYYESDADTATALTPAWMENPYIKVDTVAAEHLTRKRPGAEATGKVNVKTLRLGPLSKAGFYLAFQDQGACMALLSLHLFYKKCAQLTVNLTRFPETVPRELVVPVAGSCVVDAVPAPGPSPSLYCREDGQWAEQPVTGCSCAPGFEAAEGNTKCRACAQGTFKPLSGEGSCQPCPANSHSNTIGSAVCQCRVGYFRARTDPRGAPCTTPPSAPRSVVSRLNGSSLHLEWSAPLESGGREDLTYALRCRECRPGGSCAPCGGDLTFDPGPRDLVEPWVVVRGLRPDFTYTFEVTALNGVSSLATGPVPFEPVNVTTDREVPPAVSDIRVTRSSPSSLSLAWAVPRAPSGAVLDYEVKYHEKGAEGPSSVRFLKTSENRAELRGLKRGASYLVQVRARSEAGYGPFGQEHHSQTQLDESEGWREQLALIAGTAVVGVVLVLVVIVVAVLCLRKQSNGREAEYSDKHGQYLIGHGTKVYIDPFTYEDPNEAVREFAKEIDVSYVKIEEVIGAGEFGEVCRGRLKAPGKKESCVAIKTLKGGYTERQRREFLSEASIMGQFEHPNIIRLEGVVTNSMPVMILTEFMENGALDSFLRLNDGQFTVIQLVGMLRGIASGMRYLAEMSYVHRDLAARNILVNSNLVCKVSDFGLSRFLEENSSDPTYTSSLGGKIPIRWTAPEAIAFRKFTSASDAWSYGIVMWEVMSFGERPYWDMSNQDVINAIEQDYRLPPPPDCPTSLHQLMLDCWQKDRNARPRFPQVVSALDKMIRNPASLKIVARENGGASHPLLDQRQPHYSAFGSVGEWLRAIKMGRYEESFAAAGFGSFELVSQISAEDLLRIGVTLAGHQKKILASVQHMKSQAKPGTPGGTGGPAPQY
Chain of Serine/threonine-protein kinase Nek7 (Homo sapiens) (Q8TDX7 whole entry, looked up, the tested form may be a part): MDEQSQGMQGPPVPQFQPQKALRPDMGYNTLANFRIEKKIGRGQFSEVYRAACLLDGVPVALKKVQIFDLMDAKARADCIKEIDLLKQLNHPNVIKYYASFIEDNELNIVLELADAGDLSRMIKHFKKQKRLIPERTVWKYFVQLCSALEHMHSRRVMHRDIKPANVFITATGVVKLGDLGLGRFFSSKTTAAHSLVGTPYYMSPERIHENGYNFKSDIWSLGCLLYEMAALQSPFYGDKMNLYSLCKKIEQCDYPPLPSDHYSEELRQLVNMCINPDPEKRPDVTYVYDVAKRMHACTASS
Chain of Mitogen-activated protein kinase 15 (Homo sapiens) (Q8TD08 whole entry, the tested form may be a part): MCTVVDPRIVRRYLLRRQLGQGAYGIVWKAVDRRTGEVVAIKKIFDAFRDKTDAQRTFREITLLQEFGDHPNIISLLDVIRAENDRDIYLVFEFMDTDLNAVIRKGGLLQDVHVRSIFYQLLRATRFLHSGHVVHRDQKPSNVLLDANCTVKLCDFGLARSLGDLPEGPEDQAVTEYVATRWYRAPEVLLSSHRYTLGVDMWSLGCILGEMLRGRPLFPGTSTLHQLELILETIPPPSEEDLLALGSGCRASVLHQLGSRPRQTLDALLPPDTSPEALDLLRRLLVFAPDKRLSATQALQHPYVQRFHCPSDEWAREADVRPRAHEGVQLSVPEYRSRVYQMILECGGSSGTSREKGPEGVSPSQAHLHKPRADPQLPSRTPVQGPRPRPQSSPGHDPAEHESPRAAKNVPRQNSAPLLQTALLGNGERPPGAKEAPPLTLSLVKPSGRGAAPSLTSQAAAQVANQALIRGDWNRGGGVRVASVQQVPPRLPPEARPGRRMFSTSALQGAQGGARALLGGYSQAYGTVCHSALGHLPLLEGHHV

SMILES: O=C(Nc1cc(-c2cn(CCNc3c4c(nc5ccccc35)CCCC4)nn2)ccn1)Nc1cccc2c1C1CCCCN1C2=O (racemic)
- IC50 [1]: 3 µM
- cytotoxicity at 24 h, 100 µM [2]: 50%
- Activity [3]: 39%
- Activity [4]: 1.1%
- Activity [5]: 63%
- Activity [6]: 82%
- Activity [7]: 0.3%
- Activity [8]: 100%
- Activity [9]: 100%
- Activity [10]: 0.05%
- Activity [11]: 87%
- Activity [12]: 19%
- Activity [13]: 40%
- Activity [14]: 1%
- Activity [15]: 97%
- Activity [16]: 42%
- Activity [17]: 58%
- Activity [18]: 69%
- Activity [19]: 27%
- Activity [20]: 70%
- Activity [21]: 40%
- Activity [22]: 36%
- Activity [23]: 26%
- Activity [24]: 74%
- Activity [25]: 36%
